Source: patent publication US5169850A, “N-(dialkylamino)methylene)-substituted pyrazolo(1,5-a)-pyrimidine-3-carboxamides and N-(dialkylamino)methylene-substituted-4,5-dihydropyrazolo-(1,5-a)-pyrimi dine-3-carboxamides” (American Cyanamid Company, priority 1991, dated 1992)
Where “and” joins values, the source holds several entries; their conditions need not be identical. Identical values can stand only once.

How the values were obtained:
[1] = Passive-Avoidance Anoxic-Induced-Amnesia Test; format: in vivo, Swiss-Webster mice; details: vs saline control, active if 30 percent
Description: Another in vivo test associated with decreased neural function in mammals is the Passive-Avoidance Anoxic-Induced-Amnesia Test. This test is used to determine the attenuation of anoxic induced amnesia in mice treated with drug, as compared to saline treated control animals with no drug.
A shock-motivated, single trial, step-through passive avoidance procedure is used. Groups of 25 Swiss-Webster, middle aged mice (9 months of age) are placed singly in the front chamber of a 2-chamber box and are allowed to voluntarily cross into the rear chamber. As soon as the mouse enters the rear chamber, a door automatically traps the animal and a mild electric shock (0.4 mA for 4 seconds) is delivered to its feet. Following the foot shock, the mice are initially placed in an anoxic environment (0 percent oxygen) for 12 seconds, which quickly induces unconsciousness. They are then placed in a hypoxic environment (15 percent oxygen) for four minutes which prolongs the oxygen deprived state, maintaining unconsciousness. All testing is performed 24 hours later, and in all cases the mice appear fully recovered from the previous anoxic/hypoxic treatment. All test compounds are administered intraperitoneally at a dose of 5-200 mg/kg, 30 minutes prior to training and testing. Control animals are injected intraperitoneally only with saline at 0.01 cc/g of body weight.
The latency to enter the rear chamber is recorded for both training and testing. Presumably, the more the animal remembers being shocked, the greater it will inhibit going into the rear chamber and the higher will be its latency to re-enter. An improvement of 30 percent over saline control scores is considered active.

Hypoxic Survival Test = format: in vivo, Royal Hart mice; details: for % Survivors: 30 min before hypoxia, survival after 5 min
Experimental: A useful in vivo test that measures how effectively central nervous system-acting drugs enhance survival in an hypoxic environment, presumably by improving the ratio of energy supply to demand is known as the Hypoxic Survival Test. […] Drugs are tested by intraperitoneally injecting groups of mice 30 minutes prior to placing them in hypoxic mixture and measuring survival. The rationale of this test is that drugs which enhance survival under hypoxic conditions without concomitant, depression or sedative side effects, may do so by enhancing energy metabolism, or by preserving normal brain function under conditions of reduced energy metabolism. Given the dependence of the brain on a constant supply of energy, drugs which have this property may have many far-reaching therapeutic indications, including recovery from stroke and closed head injury, as well as reducing the deleterious effects of the aging central nervous system. […]
A separate group of 20 mice is injected intraperitoneally with saline solution (0.01 cc/g of body weight) and processed as described above.
Still another group of 20 mice is injected intraperitoneally with 0.125 mg/kg of physostigmine and processed as described above.

[2] = tested on: Brain-Specific Receptors of Rats (3H-benzodiazepine binding); assay: Inhibition of the binding of 3H-benzodiazepine to brain-specific receptors of rats; design: species or system rat (male albino, Wistar strain); details: 3H-diazepam or 3H-flunitrazepam, rat cortex P2 fraction, pH 7.4, 30 min in ice; test concentration not given
Description: Still another test utilized for the determination of anxiolytic activity is the measurement of the ability of a test compound to inhibit the binding of tritiated benzodiazepines to brain-specific receptors of mammals. A modification of the method described by R. F. Squires, et al, Nature, 266, No. 21:732 (April, 1977) and H. Mosler, et al, Science, 198:849 (1977) was employed.
Male albino rats (Wistar strain, weighing 150-200 g each) were used. The test compounds were solubilized in N,N-dimethylformamide, acetic acid, ethanol or hydrochloric acid.
Whole cortex of rats was homogenized gently in 20 volumes of ice-cold 0.32 M sucrose, centrifuged twice at 1000 g for 10 minutes and then recentrifuged at 30,000 g for 20 minutes to produce a crude P2 -synaptosomal fraction. The P2 -fraction was either: (1) resuspended in twice the original volume in hypotonic 50 mM Tris.HCl(pH 7.4), or (2) resuspended in one-half of the original volume in hypotonic 10 mM Tris.HCL (pH 7.4) and frozen (-20° C.) until time of use. Frozen P2 preparations were thawed and resuspended in four times the original homogenizing volume at time of assay.
The binding assay consisted of 300 l of the P2 -fraction suspension (0.2-0.4 mg protein), 100 l of test drug and 100 l of 3H-diazepam 91.5 nM, final concentration) or 3H-flunitrazepam (1.0 nM, final concentration )which was added to 1.5 l of 50 mM Tris.HCl (pH 7.4). Non-specific binding controls and total binding controls received […] of diazepam ([…] final concentration) and 100 l of deionized water, respectively, in place of the test compound. Incubation for 30 minutes proceeded in ice and was terminated by filtration, under vacuum, through glass fiber filters. The filters were washed twice with 5 ml of ice-cold 50 mM Tris.HCl (pH 7.4) and placed in scintillation vials. After drying at 50°-60° C. for 30 minutes, 10 ml of diluent was added and the radioactivity determined in a scintillation counter.
Inhibition of binding was calculated by the difference between total binding and binding in the presence of test compound, divided by the total, times 100. Physiological activity can be shown by a test compound that inhibits 3H-benzodiazepine binding by 12 percent or more.

[3] = Mean arterial blood pressure in spontaneously hypertensive rats; format: in vivo, spontaneously hypertensive rats of the Okamoto strain; details: gavage, 100 mg/kg or less, two doses 24 h apart, measured at 28 h; average MABP of rats 160±1.5
Experimental: Certain of the novel compounds of the present invention are active hypotensive agents at non-toxic doses when administered to mammals. These compounds were tested for hypotensive activity by the method of P. S. Chan and D. W. Poorvin, Clinical and Experimental Hypertension, 1 (6), […] (1979). Male, 16 week old spontaneously hypertensive rats of the Okamoto strain having an average mean arterial blood pressure of 160±1.5 mm of mercury are used in the test. One to three rats are used per test compound. A rat is dosed by gavage with a test compound, suspended in 2 percent pre-boiled starch at a concentration of50 mg/ml, at a dose of 100 mg/kg of body weight or less, with 0.9 percent sodium chloride loading at a dose of 25 ml/kg of body weight. A second identical dose of the test compound, without sodium chloride loading is given 24 hours later. At 28 hours after the initial dose the mean arterial blood pressure is measured by the method of Chan and Poorvin vide supra. The procedure is repeated in a second and third rat when necessary.

[4] = Protection against clonic seizures caused by pentylenetetrazole; format: in vivo, rats; details: orally or intraperitoneally, pentylenetetrazole 23 mg/kg i.v. at 30 or 60 min
Experimental: The anti-anxiety properties of the novel compounds of the present invention have been established in a test which indicates anxiolytic activity by the measure of protection from convulsions resulting from the administration of pentylenetetrazole. Single or graded dose levels of the test compounds were administered orally or intraperitoneally in a 2 percent starch vehicle containing 0.5 percent v/v polyethylene glycol and one drop of Polysorbate 80, or distilled water and one drop of Polysorbate 80 to groups of at least four rats. At 30 or 60 minutes, the rats were treated intravenously with pentylenetetrazole at a dose of 23 mg/kg of body weight. This dose is estimated to cause clonic seizures in 99 percent of unprotected rats. The test compounds are considered active if they protect 50 percent or more of the rats from clonic seizures.
It has been reported (R. T. Hill and D. H. Tedeschi, "Animal Testing and Screening Procedures in Evaluating Psychotropic Drugs" in "An Introduction to Psychopharmacology", pp 237-288 (Eds. R. R. Rech and K. E. Moore, Raven Press, New York, 1971)) that there is a high degree of correlation between antagonism of pentylenetetrazole seizures in rats and anti-anxiety effects in higher warm-blooded animals.

[5] = Conflict procedure (non-conditioned passive avoidance); format: in vivo, Wistar strain rats; details: 25 mg/kg oral, 60 min before test
Experimental: Another test used to assess anti-anxiety effects is a non-conditioned passive avoidance procedure described by J. R. Vogel, G. Beer and D. E. Clody, "A Simple and Reliable Conflict Procedure for Testing Antianxiety Agents", Psychopharmacologia, 21, 1-7 (1971). A conflict situation was induced in rats by a modification of this method.
Groups of 8 naive, Wistar strain rats, weighing 200-240 g each, were deprived of water for 48 hours. The test compounds were administered in single or graded, oral doses, suspended in 2 percent starch with […] polyethylene glycol in distilled water and one drop of Polysorbate 80. Control animals received the vehicle alone. At 60 minutes each rat was placed in an individual clear plastic chamber. Tap water was available ad libitum from a nipple located in a black box off the main chamber. A 0.7 milliampere AC shocking current was established between the stainless steel grid floor and the tap. After 20 licks of non-shocked drinking, a 2 second shocking current was administered to the rat. This ratio of 20 licks of non-shocked drinking followed by a 2 second shock was continued for a total of 3 minutes. The number of shocks taken by each rat during the 3 minute interval was recorded and compared to a control group. […]

CC(=NC(=O)c1cnn2c(-c3cccnc3)ccnc12)N(C)C [N-((Dimethylamino)ethylidene)-7-(3-pyridinyl)pyrazolo(1,5-a)pyrimidine 3-carboxamide]
% Improvement ([1]; 25 mg/kg i.p.): 53%
% Improvement ([1]; 50 mg/kg i.p.): 46%

Cc1cnc2c(C(=O)N=CN(C)C)cnn2c1 [N-((Dimethylamino)methylene)-6-methyl-pyrazolo(1,5-a)pyrimidine-3-carboxamide]
% Survivors (Hypoxic Survival Test; 10 mg/kg i.p.): 42%
% Survivors (Hypoxic Survival Test; 50 mg/kg i.p.): 40%
% Survivors (Hypoxic Survival Test; 100 mg/kg i.p.): 62%
% Survivors (Hypoxic Survival Test; 200 mg/kg i.p.): 45%

CN(C)C=NC(=O)c1cnn2c1NCC=C2c1cccnc1 [N-((Dimethylamino)methylene)4,5-dihydro-7-(3-pyridinyl)pyrazolo(1,5-a)pyrimidine-3-carboxamide]
% Inhibition [2]: 32%
% Improvement ([1]; 50 mg/kg i.p.): 66%
% Improvement ([1]; 100 mg/kg i.p.): 54%
MABP/mmHg (no. of rat) [3]: 113 mmHg

CN(C)C=NC(=O)c1cnn2c(-c3ccccc3)ccnc12 [N-((Dimethylamino)methylene)-7-phenylpyrazolo(1,5-a)-pyrimidine-3-carboxamide]
% Inhibition [2]: 28%

CN(C)C=NC(=O)c1cnn2c1NCC=C2c1cccc(C(F)(F)F)c1 [N-((Dimethylamino)methylene)-4,5-dihydro-7-(3-(trifluoromethyl)phenylpyrazolo(1,5-a)-pyrimidine-3-carboxamide]
% Inhibition [2]: 17%
% Improvement ([1]; 25 mg/kg i.p.): 49%
% Improvement ([1]; 50 mg/kg i.p.): 57%
% of Rats Protected ([4]; 12.5 mg/kg): 88%
% of Rats Protected ([4]; 25 mg/kg): 75% and 88%
Result (no. of shocks per 3 min.) [5]: 22.9 no. of shocks per 3 min.
% Survivors (Hypoxic Survival Test; 50 mg/kg i.p.): 75%
% Survivors (Hypoxic Survival Test; 100 mg/kg i.p.): 57%
MABP/mmHg (no. of rat) [3]: 131 mmHg

CN(C)C=NC(=O)c1cnn2c(-c3cccc(C(F)(F)F)c3)ccnc12 [N-((Dimethylamino)methylene)-7-(3-trifluoromethyl)phenyl)pyrazolo(1,5-a)pyrimidine-3-carboxamide]
% Inhibition [2]: 82%

Cc1cccc(-c2ccnc3c(C(=O)N=CN(C)C)cnn23)c1 [N-((Dimethylamino)methylene) 7-(3-methylphenyl)pyrazolo(1,5-a)pyrimidine-3-carboxamide]
% Inhibition [2]: 65%
% of Rats Protected ([4]; 50 mg/kg): 50%

CN(C)C=NC(=O)c1cnn2c(-c3cccnc3)ccnc12 [N-((Dimethylamino)methylene)-7-(3-pyridinyl)-pyrazolo(1,5-a)pyrimidine-3-carboxamide]
% Improvement ([1]; 25 mg/kg i.p.): 33%
% Improvement ([1]; 50 mg/kg i.p.): 33%
% Survivors (Hypoxic Survival Test; 25 mg/kg i.p.): 80% and 58% and 42%

CNC(=O)Oc1ccc2c(c1)[C@]1(C)CCN(C)[C@@H]1N2C [physostigmine, reference compound]
percent of physostigmine treated mice that survive (Hypoxic Survival Test; 10 percent oxygen, after 5 minutes, control mice 5-20 percent, dose 0.125 mg/kg i.p.): 60-80%

Cc1nn2c(-c3ccncc3)ccnc2c1C(=O)N=CN(C)C [N-((Dimethylamino)methylene)-2-methyl-7-(4-pyridinyl)pyrazolo(1,5-a)pyrimidine-3-carboxamide]
% Survivors (Hypoxic Survival Test; 10 mg/kg i.p.): 55%
MABP/mmHg (no. of rat) [3]: 130 mmHg

Cc1nn2c(-c3ccccc3)ccnc2c1C(=O)N=CN(C)C [N-((Dimethylamino)methylene)-2-methyl-7-phenylpyrazolo(1,5-a)pyrimidine-3-carboxamide]
% Inhibition [2]: 18%
% Improvement ([1]; 5 mg/kg i.p.): 49%
% Improvement ([1]; 10 mg/kg i.p.): 37%
% Improvement ([1]; 25 mg/kg i.p.): 66%
% Improvement ([1]; 50 mg/kg i.p.): 66%
% Survivors (Hypoxic Survival Test; 0.1 mg/kg i.p.): 45%
% Survivors (Hypoxic Survival Test; 10 mg/kg i.p.): 100%
% Survivors (Hypoxic Survival Test; 100 mg/kg i.p.): 97%
% Survivors (Hypoxic Survival Test; 200 mg/kg i.p.): 95%

Cc1cc(-c2ccccc2)n2nc(C)c(C(=O)N=CN(C)C)c2n1 [N-((Dimethylamino)methylene)-2,5-dimethyl-7-phenylpyrazolo(1,5-a)pyrimidine-3-carboxamide]
% Survivors (Hypoxic Survival Test; 100 mg/kg i.p.): 42%
